Measured values published in US20130096067A1, “DROSOPHILA TUMOR STEM CELL MODEL AND USES THEREOF” (priority 2011, published 2013).
Where two headings read alike, the source gives them in different places. Peptide text beside a SMILES is read from it. * marks the point of attachment. Boc = CC(C)(C)OC(=O)*

Test system: Raf-1^gof intestinal tumors
Details: for Fold: luciferase relative to DMSO, fed three consecutive days in vials
[1] = Table 3 summary of hits, Screen ICCB
[2] = screen of 480 ICCB compounds in vials, compounds fed to flies with one-day old Raf-1^gof tumors, assessed three days later, esg-Gal4 luciferase
[3] = screen of 480 ICCB compounds in vials, compounds fed to flies with one-day old Raf-1^gof tumors, assessed three days later, esg-Gal4 luciferase, averaged from multiple wells
[4] = ICCB compounds fed in vials to flies with one-day old Raf-1^gof tumors, assessed three days later
[5] = ICCB compounds fed in vials to flies with one-day old Raf-1^gof tumors, assessed three days later, averaged from multiple wells
Throughout, for Fold (luciferase activity relative to DMSO controls): test concentration or dose not given here.
Throughout, for Fold (luciferase activity, fold difference relative to DMSO controls): test concentration or dose not given here.
Throughout, for Log2 (fold) (luciferase activity, log2 of the fold difference relative to DMSO controls): test concentration or dose not given here.
Throughout, for Log2 (fold) of luciferase activity relative to DMSO controls: test concentration or dose not given here.

Row | Compound | Log2 (fold) (luciferase activity, log2 of the fold difference relative to DMSO controls) [2] | Fold (luciferase activity, fold difference relative to DMSO controls) [3] | Log2 (fold) of luciferase activity relative to DMSO controls [4] | Fold (luciferase activity relative to DMSO controls) [5] | also measured
1 | COc1cccc2c1cc([N+](=O)[O-])c1c(C(=O)O)cc3c(c12)OCO3 [aristolochic acid, reference compound] | −1.243 | 0.422 |  |  | Fold [1]: 0.422 fold
2 | CCCCC/C=C\C/C=C\CCCCCCCC(=O)NCC(=O)O [N-LINOLEOYLGLYCINE] | −0.285 | 0.821 |  |  | 
3 | Nc1ccc2c3c(cccc13)C(=O)NC2=O | −0.433 | 0.741 |  |  | 
4 | NC(=NC(=O)c1nc(Cl)c(N)nc1N)NCc1ccc(Cl)c(Cl)c1 [DICHLOROBENZAMIL] |  |  | −0.116 | 0.923 fold | 
5 | CCCCC[C@H](O)/C=C/[C@@H]1[C@@H](CC(=O)CCCCC(=O)O)[C@@H](O)C[C@H]1O [6-KETO-PROSTAGLANDIN F1a] | −0.435 | 0.740 |  |  | 
6 | CCCCC/C=C\C/C=C\C/C=C\C/C=C\CCCC(=O)N[C@H](C)CO [(R)-METHANANDAMIDE] |  |  | 0.068 | 1.049 fold | 
7 | CCCC[C@@H](C)[C@@H](OC(=O)C[C@@H](CC(=O)O)C(=O)O)[C@H](C[C@@H](C)C[C@H](O)CCCC[C@@H](O)C[C@H](O)[C@H](C)N)OC(=O)C[C@@H](CC(=O)O)C(=O)O [Fumonisin B1] | −0.685 | 0.622 |  |  | 
8 | CCCCC/C=C\C/C=C\C/C=C\C/C=C\CCCC(=O)O [ARACHIDONIC ACID (20:4, n-6)] |  |  | −0.045 | 0.969 fold | 
9 | CCCCC/C=C\C/C=C\C/C=C\C/C=C\CCCC(=O)O[C@@H](CO)COC(=O)CCCCCCCCCCCCCCCCC [1-STEAROYL-2-ARACHIDONOYL-GLYCEROL] | −0.532 | 0.692 |  |  | 
10 | CCCCC/C=C\C/C=C\CCCCCCCC(N)=O [LINOLEAMIDE] |  |  | −0.027 | 0.981 fold | 
11 | C[C@]12CC[C@@H]3c4ccc(O)cc4CC[C@H]3[C@@H]1CC[C@@H]2O [ESTRADIOL] |  |  | −0.160 | 0.895 fold | 
12 | Cc1cnc(C(=O)NCCc2ccc(S(=O)(=O)NC(=O)NC3CCCCC3)cc2)cn1 [GLIPIZIDE] | −0.417 | 0.749 |  |  | 
13 | CC1=C(/C=C/C(C)=C/C=C/C(C)=C/C(=O)O)C(C)(C)CCC1 [RETINOIC ACID, ALL TRANS] |  |  | −0.162 | 0.894 fold | 
14 | CCCCCCCCCCCCCCCCOCC(COP(=O)([O-])OCC[N+](C)(C)C)OC(C)=O (stereo not drawn) [ENANTIO-PAF C16] |  |  | −0.051 | 0.965 fold | 
15 | NC12CC3CC(CC(C3)C1)C2 [AMANTIDINE] | −0.252 | 0.840 |  |  | 
16 | CC[C@@]1(O)C(=O)OCc2c1cc1n(c2=O)Cc2cc3ccccc3nc2-1 [camptothecin, reference compound] |  |  |  |  | Log2 (fold) [1]: −1.619
17 | Cc1coc2c1C(=O)C(=O)c1c-2ccc2c1CCCC2(C)C [Tanshinone IIA] | −0.570 | 0.674 |  |  | 
18 | C1CCC(N=C(NC23CC4CC(CC(C4)C2)C3)N2CCOCC2)CC1.Cl [U-37883A] | −0.572 | 0.673 |  |  | 
19 | CCCCC/C=C\C[C@@H](/C=C/C=C\C/C=C\CCCC(=O)O)OO [12(S)-HPETE] | −0.571 | 0.673 |  |  | 
20 | CC(C)[C@H](NC(=O)CNC(=O)OC(C)(C)C)C(=O)N[C@H](C=O)C(C)C [Boc-GVV-CHO] (Boc-Gly-Val-Val-aldehyde) | −0.696 | 0.617 |  |  | 
21 | CN(C)CCCn1cc(C2=C(c3c[nH]c4ccccc34)C(=O)NC2=O)c2ccccc21 [GF-109203X] | −0.238 | 0.848 |  |  | 
22 | Ro 31-8220 |  |  | 0.158 | 1.116 fold | 

Row | Compound | Log2 (fold) (luciferase activity, log2 of the fold difference relative to DMSO controls) [2] | Fold (luciferase activity, fold difference relative to DMSO controls) [3] | Log2 (fold) of luciferase activity relative to DMSO controls [4] | Fold (luciferase activity relative to DMSO controls) [5] | also measured
23 | CC/C=C\C/C=C\C/C=C\C/C=C\C/C=C\CCCCCC(=O)O [DOCOSAPENTAENOIC ACID] |  |  | −0.161 | 0.895 fold | 
24 | CCCCCCCCCCCCCCCC(=O)C1=C(O)C(CO)OC1=O (centres unmarked) [RK-682] | −0.492 | 0.711 |  |  | 
25 | CC(C)[C@@H]1NC(=O)[C@H](C)OC(=O)[C@@H](C(C)C)NC(=O)[C@@H](C(C)C)OC(=O)[C@H](C(C)C)NC(=O)[C@H](C)OC(=O)[C@@H](C(C)C)NC(=O)[C@@H](C(C)C)OC(=O)[C@H](C(C)C)NC(=O)[C@H](C)OC(=O)[C@@H](C(C)C)NC(=O)[C@@H](C(C)C)OC1=O [valinomycin] | −0.408 | 0.754 |  |  | 
26 | CCCCC[C@H](O)/C=C/[C@@H]1[C@H](C/C=C\CCCC(=O)O)[C@@H](O)C[C@H]1O [8-EPI-PROSTAGLANDIN F2a] | −0.657 | 0.634 |  |  | 
27 | CC1=C(/C=C/C(C)=C/C=C/C(C)=C/C(=O)Nc2ccc(O)cc2)C(C)(C)CCC1 [4-HYDROXYPHENYLRETINAMIDE] | −0.244 | 0.845 |  |  | 
28 | C/C=C/C/C=C/CCC(=O)[C@H]1O[C@H]1C(N)=O [Cerulenin] | −0.474 | 0.720 |  |  | 
29 | NCCc1c[nH]cn1 [HISTAMINE] |  |  | −0.158 | 0.896 fold | 
30 | C=C1C(=O)O[C@@H]2C[C@@H](C)[C@@H]3C=CC(=O)[C@@]3(C)[C@@H](O)[C@H]12 [Helenalin] |  |  |  |  | Fold (luciferase activity relative to DMSO controls) (in vivo): 1.112 fold; Log2 (fold) of luciferase activity relative to DMSO controls (in vivo): 0.154
31 | COc1ccc(CCN(C)CCCC(C#N)(c2ccc(OC)c(OC)c2)C(C)C)cc1OC (centres unmarked) |  |  |  |  | Fold (luciferase activity, fold difference relative to DMSO controls) (in vivo): 0.838; Log2 (fold) (luciferase activity, log2 of the fold difference relative to DMSO controls) (in vivo): −0.255
32 | CC/C=C\C/C=C\C/C=C\CCCCCCCC(=O)O [LINOLENIC ACID (18:3 n-3)] |  |  | 0.096 | 1.069 fold | 
33 | O=c1c(O)c(-c2ccc(O)c(O)c2)oc2cc(O)cc(O)c12 [quercetin] |  |  |  |  | Fold (luciferase activity, fold difference relative to DMSO controls) (in vivo): 0.737; Log2 (fold) (luciferase activity, log2 of the fold difference relative to DMSO controls) (in vivo): −0.440
34 | Nc1cc(N2CCCCC2)nc(N)[n+]1[O-] [MINOXIDIL] | −0.292 | 0.817 |  |  | 
35 | O=C1Nc2ccccc2/C1=C1/Nc2ccccc2/C1=N\O [Indirubin-3′-monoxime] |  |  | −0.025 | 0.983 fold | 
36 | CC(N/C(=N\C#N)Nc1ccncc1)C(C)(C)C (centres unmarked) | −0.591 | 0.664 |  |  | 
37 | CCCCC/C=C\C=C\[C@H](CCCCCCCC(=O)O)OO [9(S)-HPODE] | −0.294 | 0.816 |  |  | 
38 | COc1ccc([C@H]2Sc3ccccc3N(CCN(C)C)C(=O)[C@H]2OC(C)=O)cc1 [L-cis-DILTIAZEM] |  |  | 0.137 | 1.100 fold | 
39 | CCCCC[C@H](O)CC(=O)CCc1ccc(O)c(OC)c1 [GINGEROL] | −0.273 | 0.827 |  |  | 
40 | CCCCCCCCCCC/C=C\C(C)(C)/C=C\CCCC(=O)O [7,7-DIMETHYLEICOSADIENOIC ACID] |  |  | 0.021 | 1.014 fold | 
41 | CCCCCCCCCCCCCCC[C@@H](O)[C@H](CO)NC(=O)CCCCCCC [C8 DIHYDROCERAMIDE] | −0.423 | 0.746 |  |  | 
42 | CNC(=O)[C@H]1O[C@@H](n2cnc3c(NCc4cccc(I)c4)ncnc32)[C@H](O)[C@@H]1O [IB-MECA] |  |  | −0.083 | 0.944 fold | 
43 | CCCCCCCCCCCCC/C=C/[C@@H](O)[C@H](CO)NC(=O)CCCCCCC [C8 CERAMIDE] | −0.427 | 0.744 |  |  | 
44 | COC[C@@H]([C@H](O)[C@H](O)C(=O)NCC[C@H](C)c1nc(/C=C/C[C@@H]2O[C@]3(C[C@@H](O)[C@@H]2C)O[C@H]([C@H](C[C@H](O)[C@H](C)[C@H](O)[C@H](C)/C=C(C)/C(C)=C/C=C/C(C)=C\C#N)OC)[C@H](OP(=O)(O)O)C3(C)C)co1)N(C)C [calyculin A, reference compound] | −1.276 | 0.413 |  |  | Fold [1]: 0.413 fold
